Reference: patent US7495105B2, “Non-racemic mixtures of (S) and (R) enantiomers of N-(2,6-dimethylphenyl)-1-propyl-2-piperidinocarboxamide; related processes and pharmaceutical compositions” (Cristalia Produtos Quimicos Farmaceuticos Ltda., priority 2001, dated 2009)
Marks after values point to notes of the source that are not given here.

Tests used:
[1] = tested on: Muscular Activity of the Gastrocnemic Muscle of the Rat; assay: Study in motor nervous conduction: gastrocnemius muscle shocks induced by electrical stimulation of the sciatic nerve; format: in vivo; details: for IC50 (%) - concentration that inhibits 50% of the amplitude of muscular shocks: 0.1 ml applied to sciatic nerve, stimulation 0.2 Hz, anesthetized Wistar rats; for Power relative to S (−) ropivacaine: from IC50 of gastrocnemic muscle shocks
Method: Wistar male rats, weighing from 180 up to 250 g were under anesthesia with sodium pentobarbital (50 mg.kg^1) via i.p. After being submitted to tracheotomy and mechanically ventilated (Harvad Apparatus mod. 681), the animals were positioned on a surgical table (C. F. Palmer), on ventral decubital, and the four paws were fixed onto the surgical table. In the posterior face and near the back paw, the sciatic nerve was carefully dissected on both paws. A pair of platinum electrodes was fixed on the portion near the nerve and connected to a stimulator Grass mod.S88. Thereafter, the Achilles tendon was isolated and fixed to the isometric tension transducer (Grass FT03) by means of a metallic rod. […] 7). The body temperature was constant during the experiment. After stabilization of the preparation, the muscular shocks were registered in the absence (salty) and in the presence of increasing doses of LAs added in the proximity of the nerve. For each test, the anesthetic that socked the nerve was of 0.1 ml. The solutions were solved in physiologic serum at 0.9%, currently the experiment is maintained at 37° C. temperature.
Particularly, in this register, ropivacaine (S(−)ropi) and the non-racemic mixture (25R:75S) were administered in the perineural region. It should be noted the difference in the power and speed action between the anesthetic. In this figure, gastrocnemic shocks of the muscle were induced by electrical stimulation of the sciatic nerve. The segment of this nerve situated in the distal portion to the stimulation electrodes was soaked with 0.1 ml ropivacaine or with the non-racemic mixture of ropivacaine […] in the concentration of 0.06%. The reduction of the amplitude of the muscular shocks is a function of the number of nervous motor fibers under effective action of the anesthetics.
The concentration that inhibits 50% of the amplitude of muscular shocks (IC50) seeks is used for comparative purposes of the power between anesthetics.

[2] = tested on: isolated heart of the rat; assay: Effects in the electrical activity (ECG) in isolated heart of the rat (Langendorff modified); details: for cardiac toxicity (cardiotoxicity) in relation to ropivacaine: conclusion from isolated rat heart
Source text: In the experiments “in vitro”, adult male Wistar rats were used, weighing from 200 up to 350 g. The animals were slaughtered under anesthesia with ethyl ether. Thereafter, the heart was quickly removed and immersed, at room temperature, on Tyrode solution, composed in mM: NaCl, 120; KCl, 5.4; MgCl2, 1.2; CaCl2, 1.25; NaH2PO4, 2.0; NaHCO3, 27; Glucose, 11. The pH of this solution was adjusted to 7.4±0.02, under bubbling with carbogenic mixture (95% of O2 and 5% of CO2).
The heart was fixed, through the aorta, to a metallic tube and the latter was connected to a peristaltic pump (Milan^R). In order to maintain the feasibility of the preparation, the heart was perfused with a Tyrode solution at a flow of 8 ml.min^−1 maintained at 37° C. The drugs tested were diluted in the perfusion solution in the desired concentration. Thereafter, the heart was immersed in a recipient containing 150 ml of Tyrode solution maintained at 37° C. For registration of the ECG, three pipettes (electrodes), filled in with KCl 1M were positioned inside the chamber, the nearest possible to the heart. The electrical signals generated by the heart were amplified (Amplifier type 3A9) and registered in polygraph (Gould Brush mod.2400). After stabilization of the preparation, the experimental protocol with the infusion of ALs in crescent concentrations (0.1 a 10 μM), at intervals of 5 minutes between them, was started. The heart was perfused during 5 minutes for each concentration. Only one drug was tested for each heart.
The ECG was continuously registered in the absence (control) and in the presence of drugs for analysis. After the infusion of the last concentration, the preparation was washed during 30 minutes with the Tyrode solution without the AL, aiming to evaluate the reversibility of the effect of the drug.

[3] = spinal anesthesia; Gautier et al. 1999; cited from earlier work
[4] = 0.1 to 10 μM, 6 experiments, FIG. 4

Compound: CCCN1CCCC[C@@H]1C(=O)Nc1c(C)cccc1C [R (+) Ropi, (R)-N-(2,6-dimethylphenyl)-1-propyl-2-piperidinocarboxamide]
- IC50 (%) - concentration that inhibits 50% of the amplitude of muscular shocks [1]: 0.043* %
- Power relative to S (−) ropivacaine [1]: 1.63*
- effect on CF (cardiac frequency) [2, 4]: greater depressors effect of CF
- effect on PR interval [2, 4]: increase in PR interval
- cardiac toxicity (cardiotoxicity) in relation to ropivacaine [2]: significantly higher cardiotoxicity
- effect on ECG of isolated heart ([2]; perfusion with 1 μM): important blocking of the cardiac vessel

Compound: CCCN1CCCCC1C(=O)Nc1c(C)cccc1C (racemic) [RS (±) Ropi, (R,S)-N-(2,6-dimethylphenyl)-1-propyl-2-piperidinocarboxamide]
- IC50 (%) - concentration that inhibits 50% of the amplitude of muscular shocks [1]: 0.036* %
- Power relative to S (−) ropivacaine [1]: 1.94*
- power (motor blocking) greater in comparison with ropivacaine ([1]; motor blocking, versus pure ropivacaine): ~90%
- effect on CF (cardiac frequency) [2, 4]: greater depressors effect of CF
- effect on PR interval [2, 4]: increase in PR interval
- cardiac toxicity (cardiotoxicity) in relation to ropivacaine [2]: significantly higher cardiotoxicity

Compound: CCCN1CCCC[C@H]1C(=O)Nc1c(C)cccc1C [S (−) Ropi, (S)-N-(2,6-dimethylphenyl)-1-propyl-2-piperidinocarboxamide]
- IC50 (%) - concentration that inhibits 50% of the amplitude of muscular shocks [1]: 0.070%
- Power relative to S (−) ropivacaine [1]: 1.0
- effect on PR interval ([2]; even in the concentration of 10 μM): do not alter the PR interval
- less potent than racemic bupivacaine [3]: about 50%
